Consider ten compounds from ChEMBL document CHEMBL5143509, “An efficient strategy for digging protein-protein interactions for rational drug design - A case study with HIF-1α/VHL” (Eur J Med Chem, 2022).

For data set [1], the system named is HeLa. In words: Cytotoxicity against human HeLa cells assessed as effect on cell viability at 100 uM measured after 24 hrs by crystal violet staining based assay. The class given is toxicity.
The test system of data set [2] is HeLa. Description: Stabilization of HIF-1 alpha OH in human HeLa cells at 100 uM incubated for 24 hrs by Western blot analysis. The class given is cell-based. A general note: A western blot detects proteins with antibodies after separation by electrophoresis.
Data set [3] can be described thus: Octanol-water partition coefficient, logP of the compound. Format: physicochemical.
The subject of data set [4] is U2OS. Description: Cytotoxicity against human U2OS cells assessed as effect on cell viability at 100 uM measured after 24 hrs by MTT assay. Format: toxicity, cell-based. Background: Tetrazolium dyes change colour on reduction, which living cells bring about.
The nature of data set [5]: Octanol/water partition coefficient, logD of the compound at pH 7.4. Format: physicochemical.
The subject of data set [6] is U2OS. In words: Upregulation of HIF-1 alpha in human U2OS cells at 100 uM incubated for 24 hrs by Western blot analysis. The class given is functional, cell-based.
Another data set deals with 786-0. Description: Cytotoxicity against human 786-0 cells assessed as effect on cell viability at 100 uM measured after 24 hrs by MTT assay. Format: toxicity, cell-based. As to conditions: 786-0, 24 h.
Data set [7] in a line: Binding affinity to VBC (unknown origin) using FAM-DEALA-Hyp-YIPD as substrate by fluorescence polarization assay. More on the design: species or system Homo sapiens. For orientation: In fluorescence polarisation assays a small probe gives low polarisation when free and higher when bound to something large.
Data set [8] has as its target Hypoxia-inducible factor 1-alpha (Homo sapiens) (UniProt Q16665). In words: Stabilization of HIF-1 alpha in human HeLa cells at 100 uM incubated for 24 hrs by Western blot analysis. The class given is cell-based.
For data set [9], the system named is HeLa. In words: Upregulation of HIF-1 alpha in human HeLa cells at 100 uM incubated for 24 hrs by Western blot analysis. Format: functional, cell-based.

pIC50: −log10 of the molar value. Calls of active or inactive are those of the source. No cut-off for these calls is given here.

The logP is the decadic logarithm of the partition coefficient of the neutral form, usually between octanol and water. One may read the logD as lipophilicity at a set pH, counting ionised and neutral species. One may read the pIC50 as −log10 of the IC50, conventionally taken in molar units. Lower therefore signals a high IC50.

Hypoxia-inducible factor 1-alpha (Homo sapiens), sequence (Q16665 whole entry, looked up): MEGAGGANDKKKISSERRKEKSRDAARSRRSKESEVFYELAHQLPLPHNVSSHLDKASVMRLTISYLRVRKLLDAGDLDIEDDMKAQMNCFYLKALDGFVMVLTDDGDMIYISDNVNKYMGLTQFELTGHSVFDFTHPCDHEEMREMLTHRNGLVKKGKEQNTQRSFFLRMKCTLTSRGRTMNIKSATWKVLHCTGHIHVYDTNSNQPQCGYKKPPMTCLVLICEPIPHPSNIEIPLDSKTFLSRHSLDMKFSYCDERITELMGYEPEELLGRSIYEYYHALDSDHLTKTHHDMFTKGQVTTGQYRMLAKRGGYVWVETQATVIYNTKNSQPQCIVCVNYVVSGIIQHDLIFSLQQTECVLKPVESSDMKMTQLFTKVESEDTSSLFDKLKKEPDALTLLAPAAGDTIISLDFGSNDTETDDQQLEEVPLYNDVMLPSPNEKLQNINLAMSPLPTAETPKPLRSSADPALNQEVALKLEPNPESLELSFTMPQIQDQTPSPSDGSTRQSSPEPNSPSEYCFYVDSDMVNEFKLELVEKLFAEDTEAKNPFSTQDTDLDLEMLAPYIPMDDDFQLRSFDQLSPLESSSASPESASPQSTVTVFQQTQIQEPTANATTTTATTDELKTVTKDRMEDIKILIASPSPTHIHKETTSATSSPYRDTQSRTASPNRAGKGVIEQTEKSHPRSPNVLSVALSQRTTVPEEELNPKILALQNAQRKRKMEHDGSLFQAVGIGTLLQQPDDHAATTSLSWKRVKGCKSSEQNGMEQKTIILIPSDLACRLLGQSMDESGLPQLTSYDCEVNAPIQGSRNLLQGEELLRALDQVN

For `CCOC(=O)CC[C@H](NC(=O)[C@@H]1C[C@@H](O)CN1C(=O)[C@@H](NC(C)=O)C(C)(C)C)c1ccc(-c2scnc2C)cc1`, the Activity result in the data set on HeLa [1] is “Non-Toxic”; with HeLa [2], 1.31 fold; with U2OS [4] it was “Non-Toxic”; with 786-0, “Non-Toxic”; in data set [8], 1.64 fold. In addition, the logP in [3] (read-out: logP) is 1.59. Also, the logD in data set [5] (read-out: logD) was 1.59. Moreover, in the data set on U2OS [6], the outcome was Active. This compound had a pIC50 in [7] of 7.09.

Regarding `CCCC[C@H](NC(=O)[C@@H]1C[C@@H](O)CN1C(=O)[C@@H](NC(C)=O)C(C)(C)C)c1ccc(-c2scnc2C)cc1`, the Activity result is “Non-Toxic” in the data set with HeLa [1]; 1.4 fold with HeLa [2]; “Non-Toxic” in the data set on U2OS [4]; “Non-Toxic” in the data set on 786-0; 1.4 fold in data set [8]. Besides, the logP in data set [3] (read-out: logP) was found to be 2.75. Besides, the logD in data set [5] (read-out: logD) came to 2.75. This compound also had a pIC50 in [7] of 6.46.

In the case of `O=C(O)CNC(=O)c1c(O)c2ccccc2n(Cc2ccccc2)c1=O`, the outcome in the data set with U2OS [6] and with HeLa [9] was Active.

`CC(=O)N[C@H](C(=O)N1C[C@H](O)C[C@H]1C(=O)N[C@@H](CCC(=O)O)c1ccc(-c2scnc2C)cc1)C(C)(C)C`: the Activity result in the data set with HeLa [1] is “Non-Toxic”; in the data set on HeLa [2], 0.99 fold; in the data set with U2OS [4] it was “Non-Toxic”; in the data set on 786-0 it was “Non-Toxic”; in [8], 1.91 fold. In data set [3] (read-out: logP), the logP was 1.02. Also, the logD in data set [5] (read-out: logD) is -0.44. For the same compound, in the data set with U2OS [6], the outcome was Active. The same compound gave a pIC50 in [7] of 7.20.

With `CC(=O)N[C@H](C(=O)N1C[C@H](O)C[C@H]1C(=O)N[C@@H](c1ccccc1)c1ccc(-c2scnc2C)cc1)C(C)(C)C`, the Activity result in the data set with HeLa [1] was “Non-Toxic”; in the data set with HeLa [2], 1.01 fold; in the data set on 786-0, “Non-Toxic”; in [8] it was 2.21 fold. In addition, the logP in [3] (read-out: logP) is 2.55. Also, the logD in data set [5] (read-out: logD) was determined as 2.55. In [7], this compound showed a pIC50 of 6.64.

`CC(=O)N[C@H](C(=O)N1C[C@H](O)C[C@H]1C(=O)N[C@@H](CCc1ccc(O)cc1)c1ccc(-c2scnc2C)cc1)C(C)(C)C`: the Activity entry in the data set with HeLa [1] was “Non-Toxic”; in the data set with HeLa [2] it was 0.75 fold; in the data set on 786-0, “Non-Toxic”; in data set [8] it was 1.79 fold. Moreover, the logP in data set [3] (read-out: logP) came to 3.08. In [5] (read-out: logD), the log distribution coefficient (logD) turned out to be 3.08. Further, the result in the data set with U2OS [6] was Active. This compound also had a pIC50 in [7] of 6.71.

`CC(=O)N[C@H](C(=O)N1C[C@H](O)C[C@H]1C(=O)NCc1ccc(-c2scnc2C)cc1)C(C)(C)C`: the Activity entry was “Non-Toxic” in the data set with HeLa [1], 1 fold with HeLa [2] and 1 fold in [8]. In data set [3] (read-out: logP), the logP worked out at 0.94. In addition, the logD in data set [5] (read-out: logD) stood at 0.94. The same compound gave a pIC50 in data set [7] of 6.69.

With `CC(=O)N[C@H](C(=O)N1C[C@H](O)C[C@H]1C(=O)N[C@@H](CCC(C)(C)C)c1ccc(-c2scnc2C)cc1)C(C)(C)C`, the Activity result in the data set on HeLa [1] is “Non-Toxic”; with HeLa [2] it was 1.21 fold; with 786-0, “Non-Toxic”; in [8] it was 2.22 fold. In data set [3] (read-out: logP), the logP stood at 3.21. Besides, in data set [5] (read-out: logD), the logD worked out at 3.21. The compound also gave a pIC50 in [7] of 6.78.

As for `CC(=O)N[C@H](C(=O)N1C[C@H](O)C[C@H]1C(=O)N[C@@H](CCc1ccc(Br)cc1)c1ccc(-c2scnc2C)cc1)C(C)(C)C`, the Activity entry is “Non-Toxic” in the data set on HeLa [1], 0.91 fold with HeLa [2], “Non-Toxic” with 786-0 and 1.88 fold in data set [8]. Besides, the logP in data set [3] (read-out: logP) is 4.08. In addition, the logD in [5] (read-out: logD) was determined as 4.08. Besides, the result with U2OS [6] was Active. This compound also had a pIC50 in data set [7] of 6.72.

Consider `CC(=O)N[C@H](C(=O)N1C[C@H](O)C[C@H]1C(=O)N[C@@H](CCc1ccncc1)c1ccc(-c2scnc2C)cc1)C(C)(C)C`, for which the Activity result in the data set with HeLa [1] is “Non-Toxic”; with HeLa [2], 2.25 fold; with U2OS [4], “Non-Toxic”; in the data set with 786-0, “Non-Toxic”; in data set [8] it was 0.99 fold. In addition, the logP in data set [3] amounted to 2.18. Besides, the logD in [5] was 2.7. Further, the pIC50 in [7] was 6.65.
